Data: patent publication US20080234130A1, “Compositions providing tolerance to multiple herbicides and methods of use thereof” (priority 2005, published 2008)

Experiments:
[1] = tested on: non-glyphosate resistant Conyza (Welgevallen-paraquat resistant); assay: Control of hairy fleabane by glyphosate, metsulfuron-methyl and two additives (Table 24); format: in vivo, Conyza bonariensis
Protocol: This example included the same treatments as used in Example 11, except the treatments were carried out on a glyphosate sensitive biotype of Kleinskraalhans (Conyza bonariensis).
• Biotype: Non-glyphosate resistant Conyza (Welgevallen-paraquat resistant) • Growth Stage: 10-15 leaf stage • Conditions: Cool and sunny • Volume rate: 200 L ha^−1 • glyphosate (ROUNDUP): 360 g a.i. L^−1

[2] = tested on: Fairview (Tulbagh) ryegrass resistant to glyphosate, paraquat, and ACCase-inhibitors; assay: Control of resistant ryegrass by glyphosate, metsulfuron-methyl and two additives (Table 25); format: in vivo; details: Trial 1: glyphosate (ROUNDUP) 0.5 L/ha
Protocol: This example was conducted on one of the most resistant ryegrass types in the world, ryegrass resistant to non-selective herbicides, e.g., Fairview (Tulbagh), which is resistant to glyphosate, paraquat, and ACCase-inhibitors. In this example, the addition of metsulfuron-methyl (BRUSH-OFF®) at 5 and 10 g ha^−1, with 1% ammonium sulfate-based adjuvant (ADD-UP®) to 0.5 L Roundup improved control by 44% (e.g., 50% to 94%).
• Biotype: Fairview (Tulbagh) resistant to glyphosate, paraquat, and ACCase-inhibitors. • Growth Stage: 10-15 leaf stage • Conditions: Cool and sunny • 15 Volume rate: 200 L ha^−1 • glyphosate (ROUNDUP): 360 g ai L^−1

[3] = tested on: non-glyphosate resistant ryegrass (70-04); assay: Control of ryegrass by glyphosate, metsulfuron-methyl and two additives (Table 23); format: in vivo; details: Trial 1: glyphosate (SCAT) 0.5 L/ha
Protocol: The example was conducted on non-glyphosate resistant ryegrass. As provided in Table 23, all treatments that included glyphosate [180 g a.i. L ha^−1 (0.5 L glyphosate (SCAT®))] plus metsulfuron-methyl (BRUSH-OFF®) (5 and 10 g ha^−1) gave 100% control of the ryegrass.
• Biotype: non-glyphosate resistant ryegrass (70-04) • Population profile: Rup 0.25 control (%) 6.25 • Rup 0.5 control (%) 81.25 • Rup 1.0 control (%) 93.75 • Growth Stage: 5-6 leaf stage • Conditions: hot and sunny • Volume rate: 200 L ha^−1

[4] = tested on: Fairview (Tulbagh) ryegrass resistant to glyphosate, paraquat, and ACCase-inhibitors; assay: Control of resistant ryegrass by glyphosate and representative SU's (Table 26); format: in vivo; details: Trial 2: glyphosate (SCAT) 6 L/ha; sprayed with 1% ADD-UP
Text: In this example, four different SU's were applied together with glyphosate (SCAT®) on the resistant ryegrass. The results as to the best SU partner for glyphosate were inconclusive, but the average benefit of applying an SU with glyphosate on herbicide resistant ryegrass was 39% (e.g., 34% control with glyphosate (SCAT®) only and 57-83% control with glyphosate (SCAT®) plus metsulfuron-methyl (BRUSH-OFF®), chlorsulfuron (GLEAN®), or triasulfuron (LOGRAN®)).
• Biotype: Fairview (Tulbagh) resistant to glyphosate, paraquat, and ACCase-inhibitors. • Growth Stage: 4 leaf stage • Conditions: Cool and sunny • Volume rate: 200 L ha^−1 • All treatments sprayed with 1% ADD-UP

GAT-HRA soybeans = assay: Postemergence greenhouse spray of soybeans, visual injury (Table 11); details: 8960 g/ha
Protocol: (§1) Young regenerated transgenic plants were sprayed with 1× glyphosate (1× rate of glyphosate is 1120 g/ha of glyphosate isopropylamine) to cull segregants. Four replications were performed for each treatment. Plants were then treated with various herbicides, including glyphosate and ALS-inhibitor herbicides.
(§2) Six soybean seeds from each variety to be assayed were planted 1 cm deep in 5.5 (13.97 cm) inch square plastic container of a synthetic growth medium. […] When possible, containers were thinned to two uniform plants. Non-transgenic lines were thinned to two uniform plants per container.
(§3) Results are expressed below in Table 11 as the mean of four replications.

[5] = tested on: non-transgenic control soybeans; assay: as above; details: 8960 g/ha
Protocol: as §1, §2, §3

[6] = tested on: GAT-HRA transgenic cotton plants; assay: Greenhouse over the top herbicide spray of cotton; format: in vivo, Gossypium hirsutum; details: glyphosate over the top at 4-6 leaf stage, 1.5 lb acid equivalent per acre; 14 days after application
Text: (§4) Transformed cotton plants were rooted and then transferred to soil for further growth. Plants were then subjected to herbicide spray treatments in a greenhouse. […] Untransformed Coker 312 control plants were dead 2 weeks after glyphosate application. […] Plants transformed with both GAT and HRA were further subjected to an “over the top” application of the sulfonylurea herbicide rimsulfuron at a rate of 16 g active ingredient/hectare. […] In further experiments 32 g ai/ha rimsulfuron were applied to the cotton.

[7] = tested on: untransformed Coker 312 cotton; assay: Greenhouse over the top herbicide spray of cotton; format: in vivo, Gossypium hirsutum; details: glyphosate over the top at 4-6 leaf stage, 1.5 lb acid equivalent per acre; 2 weeks after application
Text: as §4

[8] = tested on: non-transformed GS3 embryos; assay: Glyphosate kill curve on culture media; format: cell-based, maize; details: about 40 days culture
Protocol: (§5) A glyphosate kill curve was established by testing non-transformed embryos response on media with different levels of glyphosate. GS3 embryos were isolated from an immature ear and placed onto media containing glyphosate at 0.0, 0.5, 1.0, and 2.0 mM. After about 40 days culture, the response of the embryos were observed and recorded. Similarly, infected GS3 embryos with the GAT construct were placed onto media containing glyphosate at 0.0, 0.5, 1.0, and 2.0 mM. After about 40 days culture, the response of the infected embryos were observed and recorded (FIG. 7).

[9] = tested on: infected GS3 embryos with the GAT construct; assay: Glyphosate selection of embryos infected with the GAT construct; format: cell-based, maize; details: media with 1.0 mM or 2.0 mM glyphosate, about 40 days culture
Protocol: as §5

[10] = tested on: parent elite stiff stalk inbred corn; assay: Postemergence effect of ALS herbicides, glyphosate and glufosinate (fresh weight, visual injury); details: 200 g/ha (glyphosate 3472 g ae/ha, glufosinate ammonium 1870 g/ha), mean of four replications
[11] = tested on: heterozygous GAT-HRA corn; assay: as above; details: 200 g/ha (glyphosate 3472 g ae/ha, glufosinate ammonium 1870 g/ha), mean of four replications
[12] = 2 weeks after treatment, 0% no injury, 100% plant death

O=C(O)CNCP(=O)(O)O [glyphosate (ROUNDUP ®)]
Control (%) ([1]; Trial 1: glyphosate (ROUNDUP) 0.5 L/ha): 12% | Control (%) [2]: 50%

O=C(O)CNCP(=O)(O)O [glyphosate (SCAT ®)]
Control (%) [3]: 94% | Control (%) [4]: 34%

O=C(O)CNCP(=O)(O)O [Glyphosate, N-phosphonomethylglycine]
% Visual Injury (GAT-HRA soybeans; Event # 59, Line # 21): 40% | % Visual Injury (GAT-HRA soybeans; Event # 59, Line # 28): 37% | % Visual Injury (GAT-HRA soybeans; Event # 59, mean): 38% | % Visual Injury (GAT-HRA soybeans; Event # 60, Line # 07): 19% | % Visual Injury (GAT-HRA soybeans; Event # 60, Line # 11): 11% | % Visual Injury (GAT-HRA soybeans; Event # 60, Line # 22): 11% | % Visual Injury (GAT-HRA soybeans; Event # 60, Line # 35): 9% | % Visual Injury (GAT-HRA soybeans; Event # 60, Line # 41): 13% | % Visual Injury (GAT-HRA soybeans; Event # 60, Line # 46): 20% | % Visual Injury (GAT-HRA soybeans; Event # 60, Line # 70): 9% | % Visual Injury (GAT-HRA soybeans; Event # 60, Line # 75): 14% | % Visual Injury (GAT-HRA soybeans; Event # 60, Line # 77): 19% | % Visual Injury (GAT-HRA soybeans; Event # 60, Line # 79): 18% | % Visual Injury (GAT-HRA soybeans; Event # 60, Line # 82): 20% | % Visual Injury (GAT-HRA soybeans; Event # 60, Line # 84): 22% | % Visual Injury (GAT-HRA soybeans; Event # 60, mean): 15% | % Visual Injury (GAT-HRA soybeans; Event # 61, Line # 02): 10% | % Visual Injury (GAT-HRA soybeans; Event # 61, Line # 02B): 10% | % Visual Injury (GAT-HRA soybeans; Event # 61, Line # 05): 11% | % Visual Injury (GAT-HRA soybeans; Event # 61, Line # 14): 10% | % Visual Injury (GAT-HRA soybeans; Event # 61, Line # 18): 10% | % Visual Injury (GAT-HRA soybeans; Event # 61, Line # 24): 60% | % Visual Injury (GAT-HRA soybeans; Event # 61, Line # 33): 84% | % Visual Injury (GAT-HRA soybeans; Event # 61, Line # 34): 23% | % Visual Injury (GAT-HRA soybeans; Event # 61, Line # 47): 15% | % Visual Injury (GAT-HRA soybeans; Event # 61, Line # 49): 9% | % Visual Injury (GAT-HRA soybeans; Event # 61, Line # 51): 10% | % Visual Injury (GAT-HRA soybeans; Event # 61, Line # 60): 16% | % Visual Injury (GAT-HRA soybeans; Event # 61, Line # 62): 6% | % Visual Injury (GAT-HRA soybeans; Event # 61, Line # 99): 10% | % Visual Injury (GAT-HRA soybeans; Event # 61, mean): 20% | % Visual Injury (GAT-HRA soybeans; Event # 64, Line # 41): 20% | % Visual Injury (GAT-HRA soybeans; Event # 64, Line # 47): 10% | % Visual Injury (GAT-HRA soybeans; Event # 64, mean): 14% | % Visual Injury ([5]; STS ®, Line # 25): 100% | % Visual Injury ([5]; STS ®, Line # 46): 100% | % Visual Injury ([5]; STS ®, mean): 100% | % Visual Injury ([5]; Wild Type, Line # 82): 100% | % Visual Injury ([5]; Wild Type, Line Jack): 100% | % Visual Injury ([5]; Wild Type, mean): 100% | GAT-HRA transgenic plants with no deleterious symptoms [6]: approximately 50% | effect on untransformed Coker 312 control plants [7]: dead | callus growth ([8]; media with 1.0 and 2.0 mM glyphosate): very little callus growth | embryos showing callus initiation ([8]; medium with 0.5 mM glyphosate): about half of the embryos | resistant callus initiation of infected embryos [9]: some embryos initiated resistant callus | plants killed ([1]; glyphosate on its own, 10-15 leaf stage, 200 L ha^-1): 1 out of 16 plants | % Visual Injury Parent elite stiff stalk inbred [10, 12]: 100% | Fresh Weight (g) Parent elite stiff stalk inbred ([10]; applied two weeks after planting, fresh shoots 2 weeks after treatment, untreated 76.4 g): 1.0 g | % Visual Injury Heterozygous GAT-HRA [11, 12]: 10% | Fresh Weight (g) Heterozygous GAT-HRA ([11]; applied two weeks after planting, fresh shoots 2 weeks after treatment, untreated 98.8 g): 97.4 g
